Where two headings read alike, the source gives them in different places.
How the values were obtained:
Panc-1 = assay: cell proliferation (SRB) assay, Panc-1; format: cell-based; settings: Homo sapiens, Table 7
Protocol: (§1) Cells were seeded in 96-well plates and maintained for 5 days in the presence of 0.5 to 20 μM of individual compound, and cell proliferation was measured by the sulforhodamine B (SRB) assay as described previously (see, for example, Palakurthi, S. S. et al. Cancer Research 2000, 60(11), 2919-2925). Briefly, at the end of a 5-day treatment, cells were fixed in 10% cold trichloroacetic acid. Cell number was estimated by measuring the remaining bound dye of sulforhodamine B after washing. The percentage of growth was calculated by using the equation: 100×[(T−T0)/(C−T0)], where T and C represent the absorbance in treated and control cultures at Day 5, and T0 at time zero, respectively. If T is less than T0, cell death has occurred and can be calculated from 100×[(T−T0)/T0].
The compounds shown in Table 7 were evaluated using for activation of HRI using the dual luciferase surrogate eIF2α phosphorylation assay (see, for example, Chen, T. et al. Nature Chem Biol 2011, 7, 610-616) and for inhibition of cell proliferation using the SRB assay (see, for example, Palakurthi, S. S. et al. Cancer Res 2000, 60, 2919-2925) as described above.

[1] = test system: eIF2α phosphorylation (eIF2•GTP•Met-tRNAi ternary complex; HRI activation); assay: surrogate dual luciferase eIF2α phosphorylation (ternary complex) assay; format: cell-based, human; settings: for maximal fold induction: Homo sapiens; for C3X: Calculated concentration of compound that will cause three-fold increase in the surrogate eIF2α phosphorylation assay: Table 7
Excerpt: The dual luciferase expression vector and other plasmids used for these studies were previously described (see, for example, Ziegeler, G. et al. Journal of Biological Chemistry 2010, 285(20), 15408-19). The ternary complex assay, surrogate of eIF2α phosphorylation, has been described elsewhere (see, for example, Chen, T. et al. Nature Chemical Biology 2011, 7(9), 610-6). Briefly, the pBISA vector, which contains seven copies of the tetracycline-regulated transactivator response element (TRE), is flanked on both sides by minimal human cytomegalovirus (CMV) minimal promoters allowing bi-directional transcription and two MCSs (multiple cloning sites). Firefly and renilla luciferases were subcloned into MCS-I and MCS-II, respectively. This plasmid, designated pBISA-DL, transcribes two mRNAs that contain the 90 nucleotide plasmid derived 5′UTR (same sequence in both mRNAs), and the ORF encoding either firefly or renilla luciferase followed by a polyadenylation sequence. This plasmid was further modified by inserting the 5′UTR of ATF-4 mRNA into MCS-I in front of the firefly luciferase mRNA. Transcription from this unit generates an mRNA that contains the firefly luciferase ORF preceded by a 5′UTR composed of 90 nucleotides derived from the plasmid and 267 nucleotides derived from the 5′UTR of ATF-4 mRNA. Transcription from the other unit generates an mRNA that contains the renilla luciferase ORF proceeded only by the 90-nucleotide plasmid-derived sequence in the 5′UTR (pBISA-DL (ATF-4)) (see, for example, Chen, T. et al. Nature Chemical Biology 2011, 7(9), 610-6).
Cells expressing firefly and renilla luciferases were assayed with a dual glow luciferase assay kit, per manufacturer's instruction (Promega Inc., Madison, Wis.). The data calculations were carried out as the ratio of firefly to renilla luciferase signal.
A library of 1900 urea compounds was screened in the surrogate dual luciferase eIF2α phosphorylation (ternary complex) assay. This library was originally assembled and screened for inhibition of sEH by Hammock's group at UC-Davis (see, for example, Chen, T. et al. Nature Chem Biol 2011, 7, 610-616; Ziegeler, G et al. J Biol Chem 2010, 285, 15408-15419). We developed this assay in order to identify compounds that activate HRI, taking advantage of the fact that activated HRI phosphorylates eIF2α thereby reducing the amount of the eIF2•GTP•Met-tRNAi ternary complex that results in inhibition of translation of many mRNAs but paradoxically increases translation of some mRNAs that contain multiple upstream ORF (uORF) in their 5′ untranslated regions (UTRs). In our assay, firefly (F) luciferase mRNA is fused to 5′UTR of activating transcription factor 4 (ATF-4) mRNA that has multiple uORFs while renilla (R) luciferase mRNA is fused to a 5′UTR lacking any uORFs. Compounds that reduce the amount of the ternary complex, such as those activating HRI, would increase F luciferase expression while decreasing the R luciferase expression, resulting in an increased F/R luciferase ratio. To calculate the activity scores, the F/R ratios for every compound-treated wells were normalized to vehicle-treated (DMSO) wells that was arbitrarily set at 1 (F/R=1).

[2] = test system: CRL-2813 human melanoma cancer cells; assay: cell proliferation (SRB) assay, CRL-2813; format: cell-based
Protocol: as §1

[3] = DMSO = 1, maximum tested concentration 20 μM, read-out: Emax: Maximum activity of compound expressed as fold over vehicle
[4] = Homo sapiens, CRL2813, SRB assay, Table 7, read-out: IC50 CRL-2813
[5] = cell proliferation assay, Table 2, cell line not named, read-out: IC50
[6] = surrogate eIF2α phosphorylation assay, Table 4, read-out: Emax (F/R)
[7] = Homo sapiens, CRL2813, cell proliferation assay, Table 4, cell line not named, read-out: IC50

Row | IC50 (Panc-1) [µM] | IC50 [2, 4] [µM] | Emax (F/R) ([1]; 7.5 μM compound) | Emax (F/R) ([1]; 15 μM compound) | Emax (F/R) ([1]; 30 μM compound) | IC50 [2, 5] [µM] | IC50 [2, 7] [µM] | Structure (SMILES) | maximal fold induction [1, 3] | C3X: Calculated concentration of compound that will cause three-fold increase in the surrogate eIF2α phosphorylation assay [1] [µM] | maximal fold induction [1, 6]
1 | 0.7 | 0.15 |  |  |  |  |  | O=C(Nc1cc(C(F)(F)F)cc(C(F)(F)F)c1)N[C@H]1CC[C@H](Oc2ccc(C(F)(F)F)cc2)CC1 | 38 | 0.15 | 
2 | 2.8 | 1.5 |  |  |  |  |  | O=C(Nc1cccc(C(F)(F)F)c1)N[C@H]1CC[C@H](Oc2ccc(C(F)(F)F)cn2)CC1 | 6 | 3.5 | 
3 | 3 | 4 |  |  |  |  |  | N#Cc1ccc(O[C@H]2CC[C@H](NC(=O)Nc3cccc(C(F)(F)F)c3)CC2)cc1 | 4 | 5 | 
4 | 10 | 10 |  |  |  |  |  | N#Cc1ccc(NC(=O)N[C@H]2CC[C@H](Oc3ccc(C#N)cc3)CC2)cc1 |  |  | 
5 |  |  | 0.93 | 0.93 | 0.76 | > 20 |  | O=C(Nc1ccccc1OC(F)(F)F)N[C@H]1CC[C@H](OCc2c(F)cccc2F)CC1 [II-6o] |  |  | 
6 |  |  | 0.81 | 0.80 | 0.98 | > 20 |  | O=C(Nc1ccc(OC(F)(F)F)cc1)N[C@H]1CC[C@H](OCc2c(F)cccc2F)CC1 [II-6p] |  |  | 
7 |  |  | 0.81 | 0.81 | 0.77 | > 20 |  | Cc1ccc(NC(=O)N[C@H]2CC[C@H](OCc3c(F)cccc3F)CC2)cc1 [II-7p] |  |  | 
8 |  |  | 0.84 | 0.97 | 0.74 | > 20 |  | COc1cccc(NC(=O)N[C@H]2CC[C@H](OCc3c(F)cccc3F)CC2)c1 [II-8m] |  |  | 
9 |  |  | 0.94 | 0.88 | 0.84 | > 20 |  | COc1ccccc1NC(=O)N[C@H]1CC[C@H](OCc2c(F)cccc2F)CC1 [II-8o] |  |  | 
10 |  |  | 0.74 | 0.71 | 0.68 | > 20 |  | COc1ccc(NC(=O)N[C@H]2CC[C@H](OCc3c(F)cccc3F)CC2)cc1 [II-8p] |  |  | 
11 |  |  | 0.96 | 0.76 | 0.94 | > 20 |  | O=C(Nc1cccc([N+](=O)[O-])c1)N[C@H]1CC[C@H](OCc2c(F)cccc2F)CC1 [II-9m] |  |  | 
12 |  |  | 0.87 | 0.83 | 0.83 | > 20 |  | O=C(Nc1ccc([N+](=O)[O-])cc1)N[C@H]1CC[C@H](OCc2c(F)cccc2F)CC1 [II-9p] |  |  | 
13 |  |  | 0.94 | 0.98 | 1.07 | > 20 |  | CSc1ccc(NC(=O)N[C@H]2CC[C@H](OCc3c(F)cccc3F)CC2)cc1 [II-10p] |  |  | 
14 |  |  | 0.89 | 0.88 | 0.81 | > 20 |  | O=C(Nc1ccccc1)N[C@H]1CC[C@H](OCc2c(F)cccc2F)CC1 [II-11] |  |  | 
15 |  |  |  |  |  |  | 3.8 ± 1.2 | O=C(Nc1cccc(C(F)(F)F)c1)NC1CCCC(Oc2ccc(C(F)(F)F)cc2)C1 (stereo not shown) [III-6, 1-(3-(4-(Trifluoromethyl)phenoxy)cyclohexyl)-3-(3-(trifluoromethyl)phenyl)urea] |  |  | 4.52

Second part, the compound before the results:

Row | Structure (SMILES) | IC50 (Panc-1) [µM] | IC50 [2, 4] [µM] | Emax (F/R) ([1]; 7.5 μM compound) | Emax (F/R) ([1]; 15 μM compound) | Emax (F/R) ([1]; 30 μM compound) | IC50 [2, 5] [µM] | IC50 [2, 7] [µM] | maximal fold induction [1, 3] | C3X: Calculated concentration of compound that will cause three-fold increase in the surrogate eIF2α phosphorylation assay [1] [µM] | maximal fold induction [1, 6]
16 | O=C(Nc1cccc(OC(F)(F)F)c1)N[C@H]1CC[C@H](Oc2ccc(OC(F)(F)F)cc2)CC1 | 3 | 1.2 |  |  |  |  |  | 14 | 1.3 | 
17 | N#Cc1cccc(NC(=O)N[C@H]2CC[C@H](Oc3ccc(C(F)(F)F)cc3)CC2)c1 | 2.5 | 0.8 |  |  |  |  |  | 10 | 2 | 
18 | N#Cc1ccc(NC(=O)N[C@H]2CC[C@H](Oc3ccc(C(F)(F)F)cc3)CC2)cc1 | 2 | 0.9 |  |  |  |  |  | 9 | 0.6 | 
19 | N#Cc1cc(C(F)(F)F)ccc1O[C@H]1CC[C@H](NC(=O)Nc2cccc(C(F)(F)F)c2)CC1 | 1.8 | 1.3 |  |  |  |  |  | 8 | 2.5 | 
20 | N#Cc1ccc(O[C@H]2CC[C@H](NC(=O)Nc3cccc(C#N)c3)CC2)cc1 | > 10 | 7 |  |  |  |  |  |  |  | 
21 | O=C(Nc1cccc(C(F)(F)F)c1)N[C@H]1CC[C@H](OCc2c(F)cccc2F)CC1 [II-5m] |  |  | 1.13 | 1.15 | 1.11 | > 20 |  |  |  | 
22 | O=C(Nc1ccccc1C(F)(F)F)N[C@H]1CC[C@H](OCc2c(F)cccc2F)CC1 [II-5o] |  |  | 0.95 | 0.80 | 0.64 | > 20 |  |  |  | 
23 | O=C(Nc1ccc(C(F)(F)F)cc1)N[C@H]1CC[C@H](OCc2c(F)cccc2F)CC1 [II-5p] |  |  | 0.91 | 0.79 | 0.85 | > 20 |  |  |  | 
24 | Cc1cccc(NC(=O)N[C@H]2CC[C@H](OCc3c(F)cccc3F)CC2)c1 [II-7m] |  |  | 0.82 | 0.89 | 0.81 | > 20 |  |  |  | 
25 | Cc1ccccc1NC(=O)N[C@H]1CC[C@H](OCc2c(F)cccc2F)CC1 [II-7o] |  |  | 0.78 | 0.79 | 0.83 | > 20 |  |  |  | 
26 | O=C(Nc1ccccc1[N+](=O)[O-])N[C@H]1CC[C@H](OCc2c(F)cccc2F)CC1 [II-9o] |  |  | 0.96 | 0.90 | 0.74 | > 20 |  |  |  | 
27 | CSc1cccc(NC(=O)N[C@H]2CC[C@H](OCc3c(F)cccc3F)CC2)c1 [II-10m] |  |  | 1.01 | 0.73 | 1.06 | > 20 |  |  |  | 
28 | CSc1ccccc1NC(=O)N[C@H]1CC[C@H](OCc2c(F)cccc2F)CC1 [II-10o] |  |  | 0.82 | 0.90 | 0.83 | > 20 |  |  |  | 
29 | O=C(Nc1cccc(C(F)(F)F)c1)NC1CCCCC1 [III-1, 1-Cyclohexyl-3-(3-(trifluoromethyl)phenyl)urea] |  |  |  |  |  |  | 13.2 ± 2.3 |  |  | 1.87
30 | O=C(Nc1cccc(C(F)(F)F)c1)NC1CCC(O)CC1 (stereo not shown) [III-2, 1-(4-Hydroxycyclohexyl)-3-(3-(trifluoromethyl)phenyl)urea] |  |  |  |  |  |  | > 20 |  |  | 0.89
31 | COC1CCC(NC(=O)Nc2cccc(C(F)(F)F)c2)CC1 (stereo not shown) [III-3, 1-(4-Methoxycyclohexyl)-3-(3-(trifluoromethyl)phenyl)urea] |  |  |  |  |  |  | > 20 |  |  | 1.16

From patent US20160318856A1, “Substituted Urea eIF2alpha Kinase Activators” (THE BRIGHAM AND WOMEN'S HOSPITAL, INC., priority 2013, published 2016)
